Results from ChEMBL document CHEMBL1137071, “Phenyl thiazolyl urea and carbamate derivatives as new inhibitors of bacterial cell-wall biosynthesis” (Bioorg Med Chem Lett, 2004).
Values after ≈ are worked out from the molar mass of the structure shown. Blank lines part the entries; values can stand above or below the compound they belong to.

Tests used:
Type in all cases: functional
Enterococcus faecalis [1] = assay: Antimicrobial activity against Enterococcus faecalis GC 2242 (VRE); Not active; 1-4
Escherichia coli [2] = assay: Antimicrobial activity against Escherichia coli GC 4559; Not active; 1-4
Escherichia coli [3] = assay: Antimicrobial activity against Escherichia coli GC 4560; Not active; 1-4
Enterococcus faecalis [4] = assay: Antimicrobial activity against Enterococcus faecalis GC 4555 (ATCC); Not active; 1-4
[5] = Inhibitory activity against MurB
Staphylococcus aureus [6] = assay: Antimicrobial activity against Staphylococcus aureus GC 1131 (MRSA); Not active; 1-4
Staphylococcus [7] = assay: Antimicrobial activity against MSCNS (methicillin-susceptible coagulase-negative staphylococci) GC 646; Not active; 1-4
Staphylococcus aureus [8] = assay: Antimicrobial activity against Staphylococcus aureus GC 2216 (ATCC); Not active; 1-4
Streptococcus pneumoniae [9] = assay: Antimicrobial activity against Streptococcus pneumoniae GC1894 (PRSP) in the presence of 4% bovine serum albumin; Not active; 1-4
Streptococcus pneumoniae [10] = assay: Antimicrobial activity against Streptococcus pneumoniae GC1894 (PRSP); Not active; 1-4
Staphylococcus aureus [11] = assay: Antimicrobial activity against Staphylococcus aureus GC 4543 (MSSA); Not active; 1-4
Enterococcus faecalis [12] = assay: Antimicrobial activity against Enterococcus faecalis GC 2242 (VRE); Not active; 0.5-8
Escherichia coli [13] = assay: Antimicrobial activity against Escherichia coli GC 4559; Not active; 0.5-8
Escherichia coli [14] = assay: Antimicrobial activity against Escherichia coli GC 4560; Not active; 0.5-8
Enterococcus faecalis [15] = assay: Antimicrobial activity against Enterococcus faecalis GC 4555 (ATCC); Not active; 0.5-8
Staphylococcus aureus [16] = assay: Antimicrobial activity against Staphylococcus aureus GC 1131 (MRSA); Not active; 0.5-8
Staphylococcus aureus [17] = assay: Antimicrobial activity against Staphylococcus aureus GC 2216 (ATCC); Not active; 0.5-8
Staphylococcus [18] = assay: Antimicrobial activity against MSCNS (methicillin-susceptible coagulase-negative staphylococci) GC 646; Not active; 0.5-8
Staphylococcus aureus [19] = assay: Antimicrobial activity against Staphylococcus aureus GC 4543 (MSSA); Not active; 0.5-8
Streptococcus pneumoniae [20] = assay: Antimicrobial activity against Streptococcus pneumoniae GC1894 (PRSP) in the presence of 4% bovine serum albumin; Not active; 0.5-8
Streptococcus pneumoniae [21] = assay: Antimicrobial activity against Streptococcus pneumoniae GC1894 (PRSP); Not active; 0.5-8
Enterococcus faecalis [22] = assay: Antimicrobial activity against Enterococcus faecalis GC 2242 (VRE); Not active; 16->128
Escherichia coli [23] = assay: Antimicrobial activity against Escherichia coli GC 4559; Not active; 16->128
Escherichia coli [24] = assay: Antimicrobial activity against Escherichia coli GC 4560; Not active; 16->128
Enterococcus faecalis [25] = assay: Antimicrobial activity against Enterococcus faecalis GC 4555 (ATCC); Not active; 16->128
Staphylococcus aureus [26] = assay: Antimicrobial activity against Staphylococcus aureus GC 1131 (MRSA); Not active; 16->128
Staphylococcus [27] = assay: Antimicrobial activity against MSCNS (methicillin-susceptible coagulase-negative staphylococci) GC 646; Not active; 16->128
Staphylococcus aureus [28] = assay: Antimicrobial activity against Staphylococcus aureus GC 2216 (ATCC); Not active; 16->128
Staphylococcus aureus [29] = assay: Antimicrobial activity against Staphylococcus aureus GC 4543 (MSSA); Not active; 16->128
Streptococcus pneumoniae [30] = assay: Antimicrobial activity against Streptococcus pneumoniae GC1894 (PRSP) in the presence of 4% bovine serum albumin; Not active; 16->128
Streptococcus pneumoniae [31] = assay: Antimicrobial activity against Streptococcus pneumoniae GC1894 (PRSP); Not active; 16->128
Enterococcus faecalis [32] = assay: Antimicrobial activity against Enterococcus faecalis GC 2242 (VRE); Not active; 32-128
Escherichia coli [33] = assay: Antimicrobial activity against Escherichia coli GC 4559; Not active; 32-128
Escherichia coli [34] = assay: Antimicrobial activity against Escherichia coli GC 4560; Not active; 32-128
Enterococcus faecalis [35] = assay: Antimicrobial activity against Enterococcus faecalis GC 4555 (ATCC); Not active; 32-128
Staphylococcus aureus [36] = assay: Antimicrobial activity against Staphylococcus aureus GC 1131 (MRSA); Not active; 32-128
Staphylococcus [37] = assay: Antimicrobial activity against MSCNS (methicillin-susceptible coagulase-negative staphylococci) GC 646; Not active; 32-128
Staphylococcus aureus [38] = assay: Antimicrobial activity against Staphylococcus aureus GC 2216 (ATCC); Not active; 32-128
Staphylococcus aureus [39] = assay: Antimicrobial activity against Staphylococcus aureus GC 4543 (MSSA); Not active; 32-128
Streptococcus pneumoniae [40] = assay: Antimicrobial activity against Streptococcus pneumoniae GC1894 (PRSP) in the presence of 4% bovine serum albumin; Not active; 32-128
Streptococcus pneumoniae [41] = assay: Antimicrobial activity against Streptococcus pneumoniae GC1894 (PRSP); Not active; 32-128
Enterococcus faecalis [42] = assay: Antimicrobial activity against Enterococcus faecalis GC 2242 (VRE)
Escherichia coli [43] = assay: Antimicrobial activity against Escherichia coli GC 4559
Escherichia coli [44] = assay: Antimicrobial activity against Escherichia coli GC 4560
Enterococcus faecalis [45] = assay: Antimicrobial activity against Enterococcus faecalis GC 4555 (ATCC)
[46] = Inhibitory activity against MurA from Escherichia coli
[47] = Inhibitory activity against MurB from Escherichia coli
[48] = Inhibitory activity against MurB from Staphylococcus aureus
[49] = Antimicrobial activity against MSCNS (methicillin-susceptible coagulase-negative staphylococci) GC 646; conditions: Staphylococcus
Staphylococcus aureus [50] = assay: Antimicrobial activity against Staphylococcus aureus GC 1131 (MRSA)
Staphylococcus aureus [51] = assay: Antimicrobial activity against Staphylococcus aureus GC 2216 (ATCC)
Staphylococcus aureus [52] = assay: Antimicrobial activity against Staphylococcus aureus GC 4543 (MSSA)
Streptococcus pneumoniae [53] = assay: Antimicrobial activity against Streptococcus pneumoniae GC1894 (PRSP) in the presence of 4% bovine serum albumin
Streptococcus pneumoniae [54] = assay: Antimicrobial activity against Streptococcus pneumoniae GC1894 (PRSP)
Enterococcus faecalis [55] = assay: Antimicrobial activity against Enterococcus faecalis GC 2242 (VRE); Not active; 0.5-128
Escherichia coli [56] = assay: Antimicrobial activity against Escherichia coli GC 4560; Not active; 0.5-128
Enterococcus faecalis [57] = assay: Antimicrobial activity against Enterococcus faecalis GC 4555 (ATCC); Not active; 0.5-128
Staphylococcus aureus [58] = assay: Antimicrobial activity against Staphylococcus aureus GC 1131 (MRSA); Not active; 0.5-128
Staphylococcus aureus [59] = assay: Antimicrobial activity against Staphylococcus aureus GC 2216 (ATCC); Not active; 0.5-128
Staphylococcus [60] = assay: Antimicrobial activity against MSCNS (methicillin-susceptible coagulase-negative staphylococci) GC 646; Not active; 0.5-128
Staphylococcus aureus [61] = assay: Antimicrobial activity against Staphylococcus aureus GC 4543 (MSSA); Not active; 0.5-128
Streptococcus pneumoniae [62] = assay: Antimicrobial activity against Streptococcus pneumoniae GC1894 (PRSP) in the presence of 4% bovine serum albumin; Not active; 0.5-128
Streptococcus pneumoniae [63] = assay: Antimicrobial activity against Streptococcus pneumoniae GC1894 (PRSP); Not active; 0.5-128
Escherichia coli [64] = assay: Antimicrobial activity against Escherichia coli GC 4559; Not active

Structure (SMILES): COC(=O)c1cnn(C)c1NC(=O)Nc1ccc(Cl)c(Cl)c1
MIC (Enterococcus faecalis [1]): 4 µg/mL (≈ 11.7 µM) | MIC (Escherichia coli [2]): 4 µg/mL (≈ 11.7 µM) | MIC (Escherichia coli [3]): 4 µg/mL (≈ 11.7 µM) | MIC (Enterococcus faecalis [4]): 4 µg/mL (≈ 11.7 µM) | IC50 [5]: 23 µg/mL (≈ 67 µM) | MIC (Staphylococcus aureus [6]): 4 µg/mL (≈ 11.7 µM) | MIC (Staphylococcus [7]): 4 µg/mL (≈ 11.7 µM) | MIC (Staphylococcus aureus [8]): 4 µg/mL (≈ 11.7 µM) | MIC (Streptococcus pneumoniae [9]): 4 µg/mL | MIC (Streptococcus pneumoniae [10]): 4 µg/mL (≈ 11.7 µM) | MIC (Staphylococcus aureus [11]): 4 µg/mL (≈ 11.7 µM)

Structure (SMILES): O=C(Nc1ccc(Cl)c(Cl)c1)Nc1cccc2cccnc12
MIC (Enterococcus faecalis [32]): > 128 µg/mL | MIC (Escherichia coli [33]): > 128 µg/mL | MIC (Escherichia coli [34]): > 128 µg/mL | MIC (Enterococcus faecalis [35]): > 128 µg/mL | IC50 [5]: > 25 µg/mL | MIC (Staphylococcus aureus [36]): > 128 µg/mL | MIC (Staphylococcus [37]): > 128 µg/mL | MIC (Staphylococcus aureus [38]): > 128 µg/mL | MIC (Staphylococcus aureus [39]): > 128 µg/mL | MIC (Streptococcus pneumoniae [40]): > 128 µg/mL | MIC (Streptococcus pneumoniae [41]): > 128 µg/mL

Structure (SMILES): N#Cc1sc(NC(=O)Nc2ccc(Cl)c(Cl)c2)nc1Cl
MIC (Enterococcus faecalis [42]): 0.25 µg/mL (≈ 0.719 µM) | MIC (Escherichia coli [43]): > 128 µg/mL | MIC (Escherichia coli [44]): 0.5 µg/mL (≈ 1.44 µM) | MIC (Enterococcus faecalis [45]): 0.5 µg/mL (≈ 1.44 µM) | IC50 [46]: > 25 µg/mL | IC50 [47]: > 25 µg/mL | IC50 [48]: > 25 µg/mL | MIC [49]: 0.5 µg/mL (≈ 1.44 µM) | MIC (Staphylococcus aureus [50]): 0.5 µg/mL (≈ 1.44 µM) | MIC (Staphylococcus aureus [51]): 0.25 µg/mL (≈ 0.719 µM) | MIC (Staphylococcus aureus [52]): 0.25 µg/mL (≈ 0.719 µM) | MIC (Streptococcus pneumoniae [53]): > 128 µg/mL | MIC (Streptococcus pneumoniae [54]): < 0.12 µg/mL

Now from value to compound:

MIC (Enterococcus faecalis [12]): 8 µg/mL (≈ 28.4 µM) | MIC (Escherichia coli [13]): 8 µg/mL (≈ 28.4 µM) | MIC (Escherichia coli [14]): 8 µg/mL (≈ 28.4 µM) | MIC (Enterococcus faecalis [15]): 8 µg/mL (≈ 28.4 µM) | IC50 [5]: 17 µg/mL (≈ 60.3 µM) | MIC (Staphylococcus aureus [16]): 8 µg/mL (≈ 28.4 µM) | MIC (Staphylococcus aureus [17]): 8 µg/mL (≈ 28.4 µM) | MIC (Staphylococcus [18]): 8 µg/mL (≈ 28.4 µM) | MIC (Staphylococcus aureus [19]): 8 µg/mL (≈ 28.4 µM) | MIC (Streptococcus pneumoniae [20]): 8 µg/mL | MIC (Streptococcus pneumoniae [21]): 8 µg/mL (≈ 28.4 µM)
Structure (SMILES): O=C(Nc1ccc(Cl)c(Cl)c1)Nc1ccccn1

MIC (Enterococcus faecalis [22]): > 128 µg/mL | MIC (Escherichia coli [23]): > 128 µg/mL | MIC (Escherichia coli [24]): > 128 µg/mL | MIC (Enterococcus faecalis [25]): > 128 µg/mL | IC50 [5]: > 25 µg/mL | MIC (Staphylococcus aureus [26]): > 128 µg/mL | MIC (Staphylococcus [27]): > 128 µg/mL | MIC (Staphylococcus aureus [28]): > 128 µg/mL | MIC (Staphylococcus aureus [29]): > 128 µg/mL | MIC (Streptococcus pneumoniae [30]): > 128 µg/mL | MIC (Streptococcus pneumoniae [31]): > 128 µg/mL
Structure (SMILES): O=C(Nc1ccc(Cl)c(Cl)c1)Nc1nncs1

MIC (Enterococcus faecalis [42]): 4 µg/mL (≈ 13.9 µM) | MIC (Escherichia coli [43]): > 128 µg/mL | MIC (Escherichia coli [44]): 0.5 µg/mL (≈ 1.74 µM) | MIC (Enterococcus faecalis [45]): 4 µg/mL (≈ 13.9 µM) | IC50 [46]: 20 µg/mL (≈ 69.4 µM) | IC50 [47]: > 25 µg/mL | IC50 [48]: > 25 µg/mL | MIC [49]: 2 µg/mL (≈ 6.94 µM) | MIC (Staphylococcus aureus [50]): 2 µg/mL (≈ 6.94 µM) | MIC (Staphylococcus aureus [51]): 2 µg/mL (≈ 6.94 µM) | MIC (Staphylococcus aureus [52]): 2 µg/mL (≈ 6.94 µM) | MIC (Streptococcus pneumoniae [53]): > 128 µg/mL | MIC (Streptococcus pneumoniae [54]): 0.5 µg/mL (≈ 1.74 µM)
Structure (SMILES): O=C(Nc1ccc(Cl)c(Cl)c1)Nc1nccs1

MIC (Enterococcus faecalis [55]): > 128 µg/mL | MIC (Escherichia coli [56]): > 128 µg/mL | MIC (Enterococcus faecalis [57]): > 128 µg/mL | IC50 [5]: 18 µg/mL (≈ 52.1 µM) | MIC (Staphylococcus aureus [58]): > 128 µg/mL | MIC (Staphylococcus aureus [59]): > 128 µg/mL | MIC (Staphylococcus [60]): > 128 µg/mL | MIC (Staphylococcus aureus [61]): > 128 µg/mL | MIC (Streptococcus pneumoniae [62]): > 128 µg/mL | MIC (Streptococcus pneumoniae [63]): > 128 µg/mL | MIC (Escherichia coli [64]): > 128 µg/mL
Structure (SMILES): COC(=O)c1sccc1NC(=O)Nc1ccc(Cl)c(Cl)c1
